Source: patent publication US7767681B2, “2-Carbamide-4-phenylthiazole derivatives, preparation thereof and therapeutic use thereof” (sanofi-aventis, priority 2004, dated 2010)
Where a name gives a salt, the structure may show the parent alone. Read-outs that look alike come from different tables or passages of the source.

Legend:
[1] = target: T1, human CCR2b receptor (Homo sapiens, UniProt P41597); experiment: Inhibitory activity on cells expressing the human CCR2b receptor; format: cell-based
T1 sequence (P41597 1-360 isoform P41597-2): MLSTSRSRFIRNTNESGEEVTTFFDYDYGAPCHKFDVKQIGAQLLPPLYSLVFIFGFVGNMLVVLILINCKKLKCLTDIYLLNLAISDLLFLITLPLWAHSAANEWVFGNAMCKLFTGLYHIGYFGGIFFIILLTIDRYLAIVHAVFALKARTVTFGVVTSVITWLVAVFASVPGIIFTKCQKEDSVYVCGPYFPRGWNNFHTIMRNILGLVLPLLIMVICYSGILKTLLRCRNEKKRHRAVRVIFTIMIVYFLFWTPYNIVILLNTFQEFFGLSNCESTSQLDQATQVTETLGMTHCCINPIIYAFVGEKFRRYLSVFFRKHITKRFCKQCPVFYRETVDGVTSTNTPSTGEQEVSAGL
Procedure: The inhibitory activity of the compounds according to the invention on cells expressing the human CCR2b receptor was measured.

[2] = test system: human THP-1 monocyte cells; experiment: Inhibition of chemotaxis on human THP-1 monocyte cells; format: cell-based; details: read-out: IC50 inhibition of chemotaxis (hMCP-1)
Procedure: The inhibition of chemotaxis was also measured on human THP-1 monocyte cells (sold by DSMZ—Germany), using a technique adapted from that described by A. Albini et al., Cancer Res., 1987, 47, 3239-3245.
The inhibition of chemotaxis by the compounds according to the invention is a sign of their antagonistic activity on chemokine receptors, and in particular the CCR2b receptor.

[3] = test system: HIV-1 Bal virus; experiment: Inhibitory activity on PBMCs infected with HIV-1 Bal (reverse transcriptase in supernatant); format: cell-based; details: compounds in culture medium for 5 days, read-out: IC50 viral replication (amount of reverse transcriptase in the supernatant)
Procedure: The inhibitory activity of the compounds according to the invention was also measured on PBMCs (peripheral blood mononuclear cells) infected with the HIV-1 Bal virus, according to a technique adapted from that described by V. Dolle et al., J. Med. Chem., 2000, 43, 3949, 3962. According to this technique, the PBMCs are infected with HIV-1 Bal and the compounds to be tested are then added to the culture medium for 5 days. At the end of this exposure, the amount of reverse transcriptase in the supernatant is measured, which correlates with the level of viral replication in the cells.

[4] = read-out: IC50 of the activity of the CCR2b receptor

Molecule	IC50 [1, 4] [nM]	melting point [°C]	other results
CCCc1ccc(OC)c(-c2csc(NC(=O)N3CCN(CCCN(CC)CC)CC3)n2)c1 [Compound No. 14]	3.3	–	–
hMCP-1: human monocyte chemotactic protein, CC chemokine, natural agonist of the CCR2b receptor [reference compound]	–	–	IC50 ([1]; read-out: IC50 of the activity of the CCR2b receptor (natural agonist hMCP-1)): 0.57 nM; IC50 [2]: 6 nM
CCCc1ccc(OC)c(-c2csc(NC(=O)N3CCN(CCCN(CC)CC)CC3)n2)c1 (as salt: HCl) [Compound No. 14]	–	145	–
Cc1cn([C@H]2C[C@H](N=[N+]=[N-])[C@@H](CO)O2)c(=O)[nH]c1=O [AZT]	–	–	IC50 [3]: < 1000 nM
COc1ccc(C2CCCC2)cc1-c1csc(NC(=O)N2CCN(CC3CCN(C)CC3)CC2)n1 [Compound No. 55]	14	102	–
